According to ChEMBL document CHEMBL1141683, “Substituted aryl pyrimidines as potent and soluble TRPV1 antagonists” (Bioorg Med Chem Lett, 2008):
Values after ≈ are worked out from the molar mass of the structure shown.

Experiments:
physchem [1] = conditions: phosphate buffered saline, pH 7
in vivo [2] = conditions: Sprague-Dawley, rat, iv, 1 mg/kg
physchem [3] = conditions: 0.01N HCl
physchem [4] = conditions: simulated intestinal fluid
in vivo [5] = conditions: Sprague-Dawley, rat, po, 5 mg/kg
Rattus norvegicus [6] = organism: Rattus norvegicus; conditions: in vivo, po, 5 mg/kg
Rattus norvegicus [7] = organism: Rattus norvegicus; conditions: in vivo, po, 5 mg/kg; remark: listed apart in the source

For `CC(=O)Nc1nc2c(Oc3cc(-c4ccc(C(F)(F)F)cc4NC(=O)[C@@H]4CCC(C)N4)ncn3)cccc2s1` (stereo not given in full), the solubility (physchem [1]) was 7.4 µg/mL (≈ 13.3 µM), the clearance (in vivo [2]) was 10.3 mL/min/kg and the solubility (physchem [3]) was 120 µg/mL (≈ 216 µM). It also gave a solubility (physchem [4]) of 59 µg/mL (≈ 106 µM).

Compound `CC(=O)Nc1nc2c(Oc3cc(-c4ccc(C(F)(F)F)cc4)ncn3)cccc2s1` [AMG-517] has a half-life (in vivo [5]) of 6.3 h, a solubility (physchem [1]) of under 1 µg/mL and an AUC (Rattus norvegicus [6]) of 5400 ng·h/mL. For the same compound, the solubility (physchem [3]) was under 1 µg/mL and the Vdss (Rattus norvegicus [7]) was 1.6 L/kg.

`CC(=O)Nc1nc2c(Oc3cc(-c4ccc(C(F)(F)F)cc4NC(=O)CCN(C)C)ncn3)cccc2s1` gave a solubility (physchem [1]) of 3.9 µg/mL (≈ 7.16 µM), a solubility (physchem [3]) of 81 µg/mL (≈ 149 µM) and a solubility (physchem [4]) of 30 µg/mL (≈ 55.1 µM).

With `CC(=O)Nc1nc2c(Oc3cc(-c4ccc(C(F)(F)F)cc4NC(=O)[C@H]4CCCN4CC(C)C)ncn3)cccc2s1` the solubility (physchem [1]) was 1 µg/mL (≈ 1.67 µM), the clearance (in vivo [2]) was over 66.7 mL/min/kg and the solubility (physchem [3]) was over 200 µg/mL. The solubility (physchem [4]) was 39 µg/mL (≈ 65.1 µM).

`CC(=O)Nc1nc2c(Oc3cc(-c4ccc(C(F)(F)F)cc4NC(=O)[C@@H]4CCCN4CC(C)C)ncn3)cccc2s1` gave a solubility (physchem [1]) of 6 µg/mL (≈ 10 µM), a clearance (in vivo [2]) of over 66.7 mL/min/kg and a solubility (physchem [3]) of over 200 µg/mL. It also gave a solubility (physchem [4]) of 39 µg/mL (≈ 65.1 µM).
